{"source": "patent US20060052387A1", "about": "“Organic compounds” (priority 2002, published 2006)", "key": {"[1]": {"tested_on": "Caspase-3 activity in M-CSF-stimulated human monocytes", "settings": "M-CSF 20 ng/mL + DMSO, 18 hours", "from_the_text": "Caspase-3 is a cysteine aspartate protease involved in the cascade leading to DNA fragmentation. Caspase-3 cleaves one subunit of a dimer called DNA fragmentation factor (DFF) at a tetrapeptide sequence DEVD, the other subunit then activates a nuclease that degrades DNA. […] Caspase-3 activity is defined as the amount of free amino trifluoromethylcoumarin (AFC) released from the caspase-3 selective fluorosubstrate DEVD-AFC measured by fluorometry. In the following table, caspase activity is given in pmol/min/mg."}, "[2]": {"tested_on": "M-CSF-stimulated human monocytes", "settings": "for numbers of viable cells after the incubation period / numbers of viable cells after the incubation period, Mean: M-CSF 20 ng/mL + DMSO, 24 hours; for numbers of viable cells after the incubation period, Mean: Mean of 3 experiments"}, "Akt": {"tested_on": "Akt", "settings": "SALT I 1 or 5 NM (so in the source); M-CSF 100 ng/mL for three minutes", "experimental": "Akt1 also called protein kinase B is a serine/threonine kinase involved in a signaling pathway activated by the Bcr-Ab1 activity. Phosphorylated Akt1 phosphorylates cellular proteins and promotes cell proliferation and cell survival.\nIn vitro Akt kinase assays were performed as described in Kelley et al., supra. Briefly, monocytes were incubated overnight with M-CSF (20 ng/mL), serum-starved for 1.5 hours. […] Akt protein was immunoprecipitated from the cell lysate. The blot was probed with anti-phospho-threonine-Akt, stripped and re-probed for total Akt."}}, "note": "Where two headings read alike, the source gives them in different places."}
{"smiles": "CS(=O)(=O)O.Cc1ccc(NC(=O)c2ccc(CN3CCN(C)CC3)cc2)cc1Nc1nccc(-c2cccnc2)n1", "note": "[SALT I]", "values": [{"measurement": "caspase activity", "setting": "[1]; Donor 1, SALT I 0.1 pM (so in the source)", "value": 156, "unit": "pmol/min/mg"}, {"measurement": "caspase activity", "setting": "[1]; Donor 1, SALT I 1 pM (so in the source)", "value": 356, "unit": "pmol/min/mg"}, {"measurement": "caspase activity", "setting": "[1]; Donor 1, SALT I 5 pM (so in the source)", "value": 573, "unit": "pmol/min/mg"}, {"measurement": "caspase activity", "setting": "[1]; Donor 1, SALT I 10 pM (so in the source)", "value": 629, "unit": "pmol/min/mg"}, {"measurement": "caspase activity", "setting": "[1]; Donor 2, SALT I 0.1 pM (so in the source)", "value": 220, "unit": "pmol/min/mg"}, {"measurement": "caspase activity", "setting": "[1]; Donor 2, SALT I 1 pM (so in the source)", "value": 299, "unit": "pmol/min/mg"}, {"measurement": "caspase activity", "setting": "[1]; Donor 2, SALT I 5 pM (so in the source)", "value": 329, "unit": "pmol/min/mg"}, {"measurement": "caspase activity", "setting": "[1]; Donor 2, SALT I 10 pM (so in the source)", "value": 407, "unit": "pmol/min/mg"}, {"measurement": "numbers of viable cells after the incubation period", "setting": "[2]; Experiment 1, SALT I 1 pM (so in the source)", "value": 130}, {"measurement": "numbers of viable cells after the incubation period", "setting": "[2]; Experiment 1, SALT I 5 pM (so in the source)", "value": 156}, {"measurement": "numbers of viable cells after the incubation period", "setting": "[2]; Experiment 1, SALT I 10 pM (so in the source)", "value": 138}, {"measurement": "numbers of viable cells after the incubation period", "setting": "[2]; Experiment 1, SALT I 50 pM (so in the source)", "value": 46}, {"measurement": "numbers of viable cells after the incubation period", "setting": "[2]; Experiment 1, SALT I 100 pM (so in the source)", "value": 15}, {"measurement": "numbers of viable cells after the incubation period", "setting": "[2]; Experiment 2, SALT I 1 pM (so in the source)", "value": 79}, {"measurement": "numbers of viable cells after the incubation period", "setting": "[2]; Experiment 2, SALT I 5 pM (so in the source)", "value": 47}, {"measurement": "numbers of viable cells after the incubation period", "setting": "[2]; Experiment 2, SALT I 10 pM (so in the source)", "value": 46}, {"measurement": "numbers of viable cells after the incubation period", "setting": "[2]; Experiment 2, SALT I 50 pM (so in the source)", "value": 7}, {"measurement": "numbers of viable cells after the incubation period", "setting": "[2]; Experiment 2, SALT I 100 pM (so in the source)", "value": 11}, {"measurement": "numbers of viable cells after the incubation period", "setting": "[2]; Experiment 3, SALT I 1 pM (so in the source)", "value": 143}, {"measurement": "numbers of viable cells after the incubation period", "setting": "[2]; Experiment 3, SALT I 5 pM (so in the source)", "value": 75}, {"measurement": "numbers of viable cells after the incubation period", "setting": "[2]; Experiment 3, SALT I 10 pM (so in the source)", "value": 58}, {"measurement": "numbers of viable cells after the incubation period", "setting": "[2]; Experiment 3, SALT I 50 pM (so in the source)", "value": 36}, {"measurement": "numbers of viable cells after the incubation period", "setting": "[2]; Experiment 3, SALT I 100 pM (so in the source)", "value": 16}, {"measurement": "number of monocytes surviving at 18 hours (in words)", "setting": "[2]; M-CSF stimulated monocytes, 18 hours", "value": "reduces"}, {"measurement": "numbers of viable cells after the incubation period, Mean", "setting": "[2]; SALT I 1 pM (so in the source)", "value": 117}, {"measurement": "numbers of viable cells after the incubation period, Mean", "setting": "[2]; SALT I 5 pM (so in the source)", "value": 93}, {"measurement": "numbers of viable cells after the incubation period, Mean", "setting": "[2]; SALT I 10 pM (so in the source)", "value": 81}, {"measurement": "numbers of viable cells after the incubation period, Mean", "setting": "[2]; SALT I 50 pM (so in the source)", "value": 30}, {"measurement": "numbers of viable cells after the incubation period, Mean", "setting": "[2]; SALT I 100 pM (so in the source)", "value": 14}, {"measurement": "Akt phosphorylation (in words)", "setting": "Akt", "value": "Decreases"}]}
